How the values were obtained:
[1] = excess molar enthalpy (molar enthalpy of mixing); xn = mol fraction of the nth substance listed; conditions: 298.15 K, 101.33 kPa, Liquid
[2] = xn = mol fraction of the nth substance listed; conditions: 298.15 K, 101.33 kPa, Liquid

ClCCCl [1,2-dichloroethane] + CCOC(C)=O
Conditions | excess molar enthalpy [kcal/mol] | mass density [kg/m3]
[1], x2 = 0.0368 | -0.00939 | –
[1], x2 = 0.0819 | -0.021 | –
[1], x2 = 0.131 | -0.0345 | –
[1], x2 = 0.1846 | -0.0491 | –
[1], x2 = 0.2408 | -0.0642 | –
[1], x2 = 0.295 | -0.0779 | –
[1], x2 = 0.3419 | -0.0867 | –
[1], x2 = 0.3836 | -0.0935 | –
[1], x2 = 0.4244 | -0.101 | –
[1], x2 = 0.46 | -0.106 | –
[1], x2 = 0.4728 | -0.107 | –
[1], x2 = 0.4972 | -0.108 | –
[1], x2 = 0.5087 | -0.108 | –
[1], x2 = 0.5523 | -0.107 | –
[1], x2 = 0.604 | -0.104 | –
[1], x2 = 0.6668 | -0.0965 | –
[1], x2 = 0.747 | -0.0807 | –
[1], x2 = 0.8328 | -0.058 | –
[1], x2 = 0.9184 | -0.0322 | –
[2], x2 = 0.0497 | – | 1223.67
[2], x2 = 0.0983 | – | 1202.79
[2], x2 = 0.1492 | – | 1181.45
[2], x2 = 0.1997 | – | 1160.95
[2], x2 = 0.2524 | – | 1140.18
[2], x2 = 0.3059 | – | 1119.62
[2], x2 = 0.3618 | – | 1098.71
[2], x2 = 0.4184 | – | 1078.16
[2], x2 = 0.4765 | – | 1057.68
[2], x2 = 0.5356 | – | 1037.35
[2], x2 = 0.5982 | – | 1016.38
[2], x2 = 0.6603 | – | 996.21
[2], x2 = 0.7247 | – | 975.88
[2], x2 = 0.7893 | – | 955.96
[2], x2 = 0.857 | – | 935.65
[2], x2 = 0.928 | – | 914.85

ClCCCCl [1,3-dichloropropane] + CCCC(=O)OCC
Conditions | excess molar enthalpy [kcal/mol] | mass density [kg/m3]
[1], x2 = 0.045 | -0.00619 | –
[1], x2 = 0.0966 | -0.0152 | –
[1], x2 = 0.1504 | -0.0234 | –
[1], x2 = 0.2076 | -0.0352 | –
[1], x2 = 0.2635 | -0.0452 | –
[1], x2 = 0.3171 | -0.0564 | –
[1], x2 = 0.3678 | -0.0673 | –
[1], x2 = 0.4155 | -0.0743 | –
[1], x2 = 0.4596 | -0.0781 | –
[1], x2 = 0.5012 | -0.0799 | –
[1], x2 = 0.5417 | -0.0797 | –
[1], x2 = 0.605 | -0.0778 | –
[1], x2 = 0.6754 | -0.071 | –
[1], x2 = 0.7523 | -0.0583 | –
[1], x2 = 0.8348 | -0.0428 | –
[1], x2 = 0.9216 | -0.0239 | –
[2], x2 = 0.0446 | – | 1159.59
[2], x2 = 0.088 | – | 1141.99
[2], x2 = 0.1341 | – | 1124.03
[2], x2 = 0.1825 | – | 1105.75
[2], x2 = 0.2294 | – | 1088.7
[2], x2 = 0.2836 | – | 1069.63
[2], x2 = 0.3377 | – | 1051.42
[2], x2 = 0.3924 | – | 1033.68
[2], x2 = 0.4475 | – | 1016.45
[2], x2 = 0.5058 | – | 998.9
[2], x2 = 0.5686 | – | 980.73
[2], x2 = 0.6322 | – | 963.09
[2], x2 = 0.6986 | – | 945.45
[2], x2 = 0.7724 | – | 926.66
[2], x2 = 0.8405 | – | 910.03

ClCCCCl [1,3-dichloropropane] + CCOC(=O)CC
[2]
Conditions | mass density [kg/m3]
x2 = 0.0533 | 1159.49
x2 = 0.1039 | 1141.98
x2 = 0.1552 | 1124.63
x2 = 0.2595 | 1090.43
x2 = 0.3141 | 1073.08
x2 = 0.3691 | 1056.04
x2 = 0.4264 | 1038.67
x2 = 0.4849 | 1021.36
x2 = 0.6033 | 987.47
x2 = 0.666 | 970.14
x2 = 0.7288 | 953.17
x2 = 0.7937 | 935.99
x2 = 0.861 | 918.65
x2 = 0.9271 | 901.62

— the NIST ThermoML archive (doi:10.1016/j.jct.2005.03.020)
